Earlier results in patent US20210007979A1 (FULTON MEDICINAL S.P.A., priority 2018, published 2021).
Structures can show the parent of a compound that is named as a salt.

Legend:
[1] = not given; remark: listed apart in the source

Solubility in water: sparingly soluble | Permeability of the oral mucosae [1]: low permeability
SMILES: CCCc1nn(C)c2c(=O)[nH]c(-c3cc(S(=O)(=O)N4CCN(C)CC4)ccc3OCC)nc12 [sildenafil citrate, Sildenafil citrate]
